Each structure is given as a SMILES string.

T1 sequence (Q00987 17-125): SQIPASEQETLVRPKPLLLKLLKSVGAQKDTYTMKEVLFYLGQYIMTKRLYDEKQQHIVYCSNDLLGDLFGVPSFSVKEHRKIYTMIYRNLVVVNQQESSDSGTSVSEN

This assay concerns the target T1, HDM2 (Homo sapiens, UniProt Q00987).
T1 construct: Thioredoxin (N); made in house; host or cells: E. coli strain BL21(DE3)Rosetta
Kind of assay: HDM2 FRET assay (inhibition of binding of FITC labeled p53-pocket peptide to HDM2). As to conditions: 0.5 nM HDM2 (residues 17 to 125), 3nM peptide, two hour incubation at room temperature; read-out: FRET IC50. The method, boiled down: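 Displacement of FITC-p53 peptide (3 nM) from His-tagged HDM2 (0.5 nM) is measured by Tb-to-fluorescein FRET in PBS, 0.01% BSA, 0.01% Tween-20. IC50 values derive from 10-point curves.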
As to `CC(C)C[C@H]1COCCN1c1nc2nc(-c3noc(=O)[nH]3)nc(-c3cccc(Cl)c3)c2n1C[C@H]1CC[C@H](C)CC1` [Example 16.39, 3-{6-(3-chlorophenyl)-7-[(trans-4-methylcyclohexyl)methyl]-8-[(3S)-3-(2-methylpropyl)morpholin-4-yl]-7H-purin-2-yl}-1,2,4-oxadiazol-5(4H)-one], the half-maximal inhibitory concentration (IC50) (as a rule, the concentration at which inhibition is half-maximal) stood at 47.5 nM.
As for `CC(C)C[C@@H]1COCCN1c1nc2nc(-c3noc(=O)[nH]3)nc(-c3cccc(Cl)c3)c2n1C[C@H]1CC[C@H](C)CC1` [Example 16.40, 3-{6-(3-chlorophenyl)-7-[(trans-4-methylcyclohexyl)methyl]-8-[(3R)-3-(2-methylpropyl)morpholin-4-yl]-7H-purin-2-yl}-1,2,4-oxadiazol-5(4H)-one], the IC50 was 4.59 nM.
For the compound `CC(C)(CO)Nc1nc2nc(-c3noc(=O)[nH]3)nc(-c3cccc(Cl)c3)c2n1C[C@H]1CC[C@H](C)CC1` [Example 16.41, 3-{6-(3-chlorophenyl)-8-[(2-hydroxy-1,1-dimethylethyl)amino] -7-[(trans-4-methylcyclohexyl)methyl]-7H-purin-2-yl}-1,2,4-oxadiazol-5(4H)-one], the IC50 is 17.8 nM.
Next, `CC(C)[C@@H]1COCCN1c1nc2nc(-c3noc(=O)[nH]3)nc(-c3cccc(Cl)c3)c2n1C[C@H]1CC[C@H](C)CC1` [Example 16.42, 3-{6-(3-chlorophenyl)-7-[(trans-4-methylcyclohexyl)methyl]-8-[(3R)-3-(1-methylethyl)morpholin-4-yl]-7H-purin-2-yl}-1 ,2,4-oxadiazol-5(4H)-one]: 3.62 nM; `C[C@H]1COCCN1c1nc2nc(-c3noc(=O)[nH]3)nc(-c3cncc(Cl)c3)c2n1C[C@H]1CC[C@H](C)CC1` [Example 16.43, 3-{6-(5-chloropyridin-3-yl)-7-[(trans-4-methylcyclohexyl)methyl]-8-[(3S)-3-methylmorpholin-4-yl]-7H -purin-2-yl}-1,2,4-oxadiazol-5(2H)-one]: 239 nM.
Take `C[C@H]1CC[C@H](Cn2c(N3CCOC[C@H]3c3ccccc3)nc3nc(-c4noc(=O)[nH]4)nc(-c4cc(Cl)cc(CO)c4)c32)CC1` [Example 16.44, 3-{6-[3-chloro-5-(hydroxymethyl)phenyl]-7-[(trans-4-methylcyclohexyl)methyl]-8-[(3R)-3-phenylmorpholin-4-yl]-7H-purin-2-yl}-1,2,4-oxadiazol-5(4H)-one]: the IC50 is 0.205 nM.
For the compound `C[C@H]1CC[C@H](Cn2c(N3CCOC[C@H]3CO)nc3nc(-c4noc(=O)[nH]4)nc(-c4cccc(Cl)c4)c32)CC1` [Example 16.45, 3-{6-(3-chlorophenyl)-8-[(3R)-3-(hydroxymethyl)mor pholin-4-yl]-7-[(trans-4-methylcyclohexyl)methyl]-7H-purin-2-yl}-1,2,4-oxadiazol-5(4H)-one], the IC50 was found to be 47.5 nM.
On to `C[C@H](CO)Nc1nc2nc(-c3n[nH]c(=O)o3)nc(-c3cccc(Cl)c3)c2n1C[C@H]1CC[C@H](C)CC1` [Example 16.46, 5-{6-(3-chlorophenyl)-8-{[(1R)-2-hydroxy-1-methylethyl]amino}-7-[(trans-4-methylcyclohexyl)methyl]-7H-purin-2-yl}-1,3,4-oxadiazol-2(3H)-one], for which the IC50 is 71 nM.
Regarding `CC[C@@H]1COCCN1c1nc2nc(-c3noc(=O)[nH]3)nc(-c3cccc(Cl)c3)c2n1C[C@H]1CC[C@H](C)CC1` [Example 16.47, 3-{6-(3-chlorophenyl)-8-[(3R)-3-ethylmorpholin-4-yl]-7-[(trans-4-methylcyclohexyl)methyl]-7H-purin-2-yl}-1,2,4-oxadiazol-5(4H)-one], the IC50 stood at 11.1 nM.
Next, `COC(=O)[C@@H]1COCCN1c1nc2nc(-c3noc(=O)[nH]3)nc(-c3cccc(Cl)c3)c2n1C[C@H]1CC[C@H](C)CC1` [Example 16.48, methyl (3S)-4-[6-(3-chlorophenyl)-7-[(trans-4-methylcyclohexyl)methyl]-2-(5-oxo-4,5-dihydro-1,2,4-oxadiazol-3-yl)-7H-purin-8-yl]morpholine-3-carboxylate]: 88.3 nM.

The values are drawn from patent publication EP2951180B1, “2,6,7,8 SUBSTITUTED PURINES AS HDM2 INHIBITORS” (Merck Sharp & Dohme Corp., priority 2013, dated 2014).
